This note sets out measurements from ChEMBL document CHEMBL1201862, “PubChem BioAssay data set” (2004).

The nature of assay [1]: blockers of HIV-1 envelope-mediated cell-cell fusion – cherry-pick, dose response (AID 652057). It is filed as functional, cell-based.
The nature of assay [2]: inhibition of Env-driven cell fusion – HIV entry, plate reader, dry powder, dose response (AID 687023). It is filed as functional, cell-based.
Assay [3] is described as follows: HIV-1 AD8 envelope cell-cell fusion blockers – cherry-pick, dose response (AID 652062).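 Note: luciferase signal from cell-cell fusion driven by HIV-1 clade B AD8 Env; potency is for inhibitors of fusion seen as a drop in luminescence.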 It is filed as functional, cell-based.
Assay [4] in a line: mouse embryonic fibroblast toxicity – cell-based, plate reader, dry powder, set 2, cytotoxicity control, dose response (AID 652280). To be noted: NIH3T3. It is filed as functional.
The nature of assay [5]: T. cruzi growth inhibition in host cells, dose response, cell-based, plate reader, dry powder, set 2 (AID 652275). The format is functional.
A short description of assay [6]: growth inhibition of SK-MEL-5 melanoma cells – cell-based, CellTiter-Glo luminescence, dry powder, set 8, orthogonal assay for MITF inhibitor project, dose response (AID 651586). It is filed as functional. (In general: ATP-based viability assays read luminescence as a measure of living cells.)
Assay [7] in a line: MITF Orthogonal Assay: MALME3 CTG Assay Measured in Cell-Based System Using Plate Reader - 2084-04_Inhibitor_Dose_DryPowder_Activity_Set6. The format is functional. To be noted: MALME-3.
Assay [8] in a line: growth inhibition of MALME3 cells – cell-based, CellTiter-Glo luminescence, dry powder, set 5, orthogonal assay for MITF inhibitor project, dose response (AID 651584). The format is functional. To be noted: MALME-3.
Assay [9] can be described thus: inhibitors of TRPM1-promoter reporter in SK-MEL-5 – cell-based, luciferase, dry powder, set 8, MITF inhibitor project, dose response (AID 624430). The format is functional.
Assay [10] is described as follows: MITF: Counter assay: A375 proliferation Measured in Cell-Based System Using Plate Reader - 2084-03_Inhibitor_Dose_DryPowder_Activity_Set8. It is filed as functional. To be noted: A-375.
The nature of assay [11]: cytotoxicity in MITF-independent A375 cells – cell-based, CellTiter-Glo luminescence, dry powder, set 9, counter-screen for MITF modulator project, dose response (AID 651591). To be noted: A-375. The format is functional.
Assay [12] can be described thus: inhibitors of TRPM1-promoter reporter in SK-MEL-5 – cell-based, luciferase, dry powder, set 9, MITF inhibitor project, dose response (AID 651588). The format is functional.
Assay [13] is described as follows: MITF Orthogonal Assay: SK-MEL-5 CTG Assay Measured in Cell-Based System Using Plate Reader - 2084-02_Inhibitor_Dose_DryPowder_Activity_Set7. It is filed as functional.
Assay [14] can be described thus: melanocyte viability loss, MITF-dependent cells, cell-based, plate reader, dry powder, cytotoxicity control, dose response (AID 651920). It is filed as functional.
Assay [15] is described as follows: Late stage assay provider results from the probe development effort to identify inhibitors of the Plasmodium falciparum M18 Aspartyl Aminopeptidase (M18AAP): radiolabel-based cell-based dose response assay to identify compounds that inhibit P. falciparum growth in RBCs, Set 2.. The format is functional.
The nature of assay [16]: A Cell-Based Confirmatory Screen for Compounds that Inhibit VEEV, TC-83 (7). The format is functional.
Assay [17] in a line: A Cell-Based Confirmatory Screen for Compounds that Inhibit VEEV, TC-83 (8). It is filed as functional.
The nature of assay [18]: toxicity to HepG2 liver cells – cell-based, plate reader, dry powder, set 6, cytotoxicity control, dose response (AID 743311). It is filed as functional.
Another assay in a line: cells. To be noted: HEK293.
Assay [19] is described as follows: toxicity to A549 lung cells – cell-based, plate reader, dry powder, set 6, cytotoxicity control, dose response (AID 743312). It is filed as functional.

“And” between values parts separate entries of the source, which are not always exact repeats. Equal values may be shown once. The source made the active and inactive calls. Where only a bound is given, the exact number is not on record here.

As to `CCCC#Cc1ccc2c(c1)O[C@@H](CN(C)S(=O)(=O)c1cccc(F)c1)[C@@H](C)CN([C@H](C)CO)S2(=O)=O`, the values for the AC50 in assay [1], in assay [2] and in [3] were 10.8 µM (active), 12.4 µM (active) and 7.8 µM (active), respectively.
Take `Cc1cccc(-c2ccc([C@H]3[C@H](CO)N4CCCCN(Cc5cccnc5)C[C@@H]34)cc2)c1`: the AC50 is 17.9 µM (active) in [4] and 0.259 µM (active) in assay [5].
Take `NS(=O)(=O)c1ccc(NC2=CC(=O)c3ccccc3C2=O)cc1`: the AC50 is 0.751 µM (active) in assay [6]; 0.703 µM (active) in assay [7]; 0.703 µM (active) in assay [8]; 1.16 µM (active) in assay [9]; > 70 µM (inactive) in assay [10]; > 70 µM (inactive) in assay [11]. The AC50 is 1.23 µM (active) in [12]; 0.0771 µM (active) in [13]; 7.15 µM (active) and 7.63 µM (active) in assay [14].
In the case of `Cc1c(OCc2ccccc2)c(=O)ccn1CCNc1c2ccccc2nc2ccccc12`, in [15], the IC50 was 4 µM (active).
Consider `O=c1c2cc([N+](=O)[O-])ccc2nc(CN2CCCNCC2)n1-c1ccccc1`, for which the IC50 was 2.48 µM (inconclusive) in assay [16] and 0.94 µM (active) in assay [17].
Regarding `c1ccc(-c2ccc(OCCn3cnc4ccccc43)cc2)cc1`, the AC50 was 5.92 µM (active) in assay [18], > 52 µM (inactive) in the assay “cells” and 0.66 µM (active) in assay [19].

The term AC50 denotes the midpoint of the concentration-response curve, whichever way the signal moves. A word on the IC50: it is the concentration that inhibits the measured activity by half.
